The results in this text go back to PubChem BioAssay AID2765 (Broad Institute, 2010).

Active and inactive are the calls of the source.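 Rule for the calls: active = half-maximal concentration for the rise in caspase light signal at or below ten times the top tested dose; inconclusive = flat fit between 30% and 70% activity, or unreliable curve fit; inactive = the rest.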 Bounds are passed on as bounds.

The experiment relates to MEF A1-2A-BIM cells, caspase 3/7 luminescence, 3 h. The experiment is described as follows: caspase activation in A1-2A-BIM MEF cells, dose response, A1 inhibitor project, cell-based, luminescence, retest (AID 2765).
What is called EC50 is the concentration giving half of the maximal effect. With `O=C(CN1C(=O)NC2(CCCCCC2)C1=O)Nc1cccc(F)c1`, the EC50 is > 35 µM (inactive).

For `Cn1ccc(=NC=C(C#N)C#N)c2ccccc21`, the EC50 was > 35 µM (inactive).

As to `CCOC(=O)c1ccc(-c2ccc(/C=N/NC(=O)CN(c3cccc(C)c3)S(C)(=O)=O)o2)cc1`, the EC50 was 24 µM.

With `CCOc1cc(/C=N/N=C(\N)c2nonc2N)cc(Br)c1OCc1cccc2ccccc12`, the EC50 was 28 µM.

For `COc1cc(S(=O)(=O)Nc2ccncc2)ccc1F`, the EC50 is > 35 µM (inactive).

As to `O=C(C1=NN[C@@H]2C(=O)N(Cc3ccccc3)C(=O)[C@H]12)c1ccc(F)cc1`, the EC50 was > 35 µM (inactive).

On to `CN1CCN(CCCNC(=O)c2ccc3c(Cl)c4c(nc3c2)CCCC4)CC1`, for which the EC50 was > 35 µM (inactive).

On to `COc1ccccc1C(=O)NCCC(=O)N1CCN(S(=O)(=O)c2ccc(Cl)cc2)CC1`, for which the EC50 was > 35 µM (inactive).

Take `COc1ccc(-n2ncc3c2CC(C)(C)CC3NC(=O)Cc2nonc2C)cc1` (stereo unspecified): the EC50 is > 35 µM (inactive).

Consider `CCNC(=O)CN(c1ccc(Br)c(C)c1)S(C)(=O)=O`, for which the EC50 is > 35 µM (inactive).

For the compound `CCC(NC(=O)c1cccc(Cn2cc([N+](=O)[O-])cn2)c1)c1ccc(C(C)C)cc1` (stereo unspecified), the EC50 is > 35 µM (inactive).

`CCS(=O)(=O)c1ncc(Cl)c(C(=O)Nc2ccc(S(=O)(=O)N(C)c3ccccc3)cc2)n1`: the EC50 was > 35 µM (inactive).

For `C=CCOc1c2ccc(C(=O)N(CC)c3ccc(OC)cc3)cc2nn1C`, the EC50 is > 35 µM (inactive).

In the case of `COc1cc2c(cc1OC)C(C)N(C(=O)c1cc3c(s1)-c1ccccc1OC3)CC2` (stereo unspecified), the EC50 was > 35 µM (inactive).

As to `CCOC(=O)CN1C(=O)CC(c2ccc([N+](=O)[O-])cc2)C1=O` (stereo unspecified), the EC50 was > 35 µM (inactive).

For `CCOC(=O)C1=C(C)N(C)C(=O)C1CC(=O)O` (stereo unspecified), the EC50 is > 35 µM (inactive).

Take `O=C(Nc1cc(Cl)ccc1N1CCOCC1)c1cccnc1`: the EC50 is > 35 µM (inactive).

Turning to `Cc1cc(=O)oc2c(C)c(OCC(=O)N3CCN(C(=O)C4COc5ccccc5O4)CC3)ccc12` (stereo unspecified), the EC50 is > 35 µM (inactive).

As for `O=C1C(=O)N(C/C=C/c2ccccc2)c2ccccc21`, the EC50 was > 35 µM (inactive).

In the case of `COc1cc2ncnc(NCc3ccc(F)cc3)c2cc1OC`, the EC50 was > 35 µM (inactive).

On to `Cc1cccc(/C=C/C(=O)c2ccc([N+](=O)[O-])o2)c1`, for which the EC50 is > 35 µM (inactive).

In the case of `COc1ccc(CN2CCN(Cc3cc4ccccc4o3)CC2CCO)c(F)c1` (stereo unspecified), the EC50 is > 35 µM (inactive).

Regarding `COc1ccc(S(=O)(=O)N(CC(=O)NCCSc2ccccn2)c2ccccc2)cc1`, the EC50 was > 35 µM (inactive).

`COC(=O)c1cc(CNC(=O)CC(C)c2ccccc2)ccc1OC` (stereo unspecified): the EC50 was > 35 µM (inactive).

As for `O=C(Cn1ncc(Cl)c(Cl)c1=O)NCC1CCCCC1`, the EC50 was > 35 µM (inactive).

With `Cn1nnnc1Sc1ncnc2scc(-c3cccc4c3sc3ccccc34)c12`, the EC50 was > 35 µM (inactive).

In the case of `Cc1ccc(NC(=O)CCN2CC(C)OC(C)C2)cc1C` (stereo unspecified), the EC50 is > 35 µM (inactive).

In the case of `CCN(CC(=O)Nc1c(F)cccc1F)C(=O)/C=C/c1ccc(C)cc1`, the EC50 was > 35 µM (inactive).

With `CCn1c(C)[n+](CCOC(C)=O)c2cc(Cl)c(Cl)cc21`, the EC50 is > 35 µM (inactive).

As for `C=CC[N+]1(CC=C)CCOCC1`, the EC50 is > 35 µM (inactive).

With `COc1ccc(CC(=O)NCCN2CCOCC2)cc1`, the EC50 was > 35 µM (inactive).

For `C=CCOc1c(Br)cc(CNc2ccc3[nH]c(=O)[nH]c3c2)cc1OCC`, the EC50 was > 35 µM (inactive).

Regarding `O=C(Nc1ccc([N+](=O)[O-])cn1)c1cc(-c2cccc(Br)c2)nc2ccccc12`, the EC50 was > 35 µM (inactive).

With `N#CC(C#N)=C1C=CC=CN1/C(=C\c1ccccc1Cl)C(=O)c1ccccc1`, the EC50 was 7.34 µM.

As to `O=C(NCCN1CCN(c2ccccc2)CC1)c1ccc2c(c1)[nH]c(=S)n1c3ccccc3nc21`, the EC50 is > 35 µM (inactive).

Turning to `CN(CC(O)COC(c1ccccc1)c1ccccc1)C1CCCCC1` (stereo unspecified), the EC50 was > 35 µM (inactive).

For the compound `CCc1noc(C)c1C(=O)N(CC)CC(=O)NCc1ccc(Cl)cc1`, the EC50 was > 35 µM (inactive).

`CC(C)(C)C1=CC=C(C(C)(C)C)C(=O)C1=O`: the EC50 was > 35 µM (inactive).

With `Oc1cc2c(cc1CN1CCN(c3ncccn3)CC1)OCO2`, the EC50 was > 35 µM (inactive).

Regarding `Cc1ccc(-c2nc(NC(=O)c3nn(C)cc3[N+](=O)[O-])sc2C)cc1C`, the EC50 is 6.26 µM.

On to `CCc1ccc(N(CC)C(=O)c2cn(C)c(=O)c3ccccc23)cc1`, for which the EC50 is > 35 µM (inactive).

Take `COc1ccccc1NC(=O)Nc1c(C)n(C)n(-c2ccccc2)c1=O`: the EC50 is > 35 µM (inactive).

`C[C@H](CO)N1C[C@H](C)[C@@H](CN(C)C(=O)NC2CCCCC2)Oc2c(NS(=O)(=O)c3cn(C)cn3)cccc2C1=O`: the EC50 was > 35 µM (inactive).

As for `O=C(c1ccccc1)N1CCN(S(=O)(=O)c2ccccc2)CC1`, the EC50 was > 35 µM (inactive).

`Cc1ccc(-c2csc(N=C(N)N)n2)cc1`: the EC50 was > 35 µM (inactive).

As for `COCCNC(=O)C(c1ccco1)N(C(=O)Cn1nnc2ccccc21)c1ccc(C)cc1C` (stereo unspecified), the EC50 is > 35 µM (inactive).

For `O=C(CCCCl)NC(=S)Nc1ccc(CN2CCOCC2)cc1`, the EC50 was > 35 µM (inactive).

Take `CC(=O)Nc1ccc(/C(C)=N/Nc2nc(Nc3ccccc3)nc(N3CCOCC3)n2)cc1`: the EC50 is > 35 µM (inactive).

In the case of `N[C@@]1(C(=O)O)CC[C@@H](C(=O)O)C1`, the EC50 is > 35 µM (inactive).

Consider `CC(Sc1nc(-c2ccccc2)cc(C(F)(F)F)n1)C(=O)N1CCCCC1` (stereo unspecified), for which the EC50 is > 35 µM (inactive).

Turning to `COc1ccc(C(CNC(=O)c2cc(S(=O)(=O)NCc3ccco3)ccc2C)N(C)C)cc1` (stereo unspecified), the EC50 was > 35 µM (inactive).

For the compound `CC(C)[C@H](NC(=O)[C@@H]1Cc2ccccc2CN1C(=O)OC(C)(C)C)C(=O)NC1CCCC1`, the EC50 was > 35 µM (inactive).

Consider `C=C1C(O)[C@@H]2O[C@]3(CC[C@H](/C=C/C(C)[C@@H]4CC(C)=CC5(O[C@H](C[C@@](C)(O)CO)CCC5O)O4)O3)CC[C@H]2O[C@@H]1C(O)CC(C)[C@H]1OC2(CCCCO2)CCC1C` (stereo partly specified), for which the EC50 is > 35 µM (inactive).

Turning to `CN(CC(=O)Nc1ccccc1Cl)CC(=O)Nc1cccc2ccccc12`, the EC50 is > 35 µM (inactive).

Take `CCOC(=O)c1sc(NC(=O)CSc2nc(C)cc(C)c2C#N)c(C#N)c1C`: the EC50 was > 35 µM (inactive).

Regarding `CC(=O)N1CCN(C(=S)c2ccc([N+](=O)[O-])cc2)CC1`, the EC50 is > 35 µM (inactive).

For the compound `CN(C)S(=O)(=O)c1cccc(C(=O)Nc2n[nH]c(C(F)(F)F)n2)c1`, the EC50 is > 35 µM (inactive).

With `O=C(CBr)Nc1c2c(nn1-c1ccccc1)CSC2`, the EC50 was > 35 µM (inactive).

Regarding `Cc1cccc2c3c([nH]c12)CCN(C)C3`, the EC50 was > 35 µM (inactive).

Regarding `CC(=O)Nc1ncnc2c1c(-c1ccc(Cl)cc1)nn2C(C)(C)C`, the EC50 was > 35 µM (inactive).

Turning to `CC1CCCN(C(=O)CN2C(=O)C(C)Oc3ccccc32)C1` (stereo unspecified), the EC50 is > 35 µM (inactive).
